A short description of this data set: Human HepG2 cell viability assay in 384 well format. The note with it: HepG2 cells, read-out: Inhibition. In kind it is toxicity, cell-based. Also on record: dose 125 nL, time 70.5 hour; concentration not given beside the values.
As to `Cn1cnc(S(=O)(=O)N2CCCc3cc(F)cc(F)c32)c1Cl`, the cytotoxicity at 70.5 h was found to be 10.5%.

Regarding `Cn1cnc(S(=O)(=O)N2CCCc3cccc(F)c32)c1Cl`, the cytotoxicity at 70.5 h is -0.174%.

Regarding `CC(=O)Nc1ccc(CNCC(O)c2ccccc2)cc1` (configuration not stated), the cytotoxicity at 70.5 h is -2.04%.

On to `CCN(CC)c1ccc(CNC(=O)N2CCC(C#N)CC2)cc1`, for which the cytotoxicity at 70.5 h was -14.6%.

For `Cc1cc(CN(C)C(=O)C(c2ccccc2)N2CCSCC2)no1` (configuration not stated), the cytotoxicity at 70.5 h is 8.49%.

Consider `CC(C)NC(=O)CCNC(=O)CCc1cc(Cl)cs1`, for which the cytotoxicity at 70.5 h was -8.99%.

For `N#Cc1cccc(NC(=O)N(CC(F)F)C2CC2)c1`, the cytotoxicity at 70.5 h was -2.73%.

`NS(=O)(=O)c1cnn(CC(=O)Nc2c(Cl)cccc2Cl)c1`: the cytotoxicity at 70.5 h is -5.76%.

As to `Cc1cc(OCCC(=O)Nc2cccc(F)c2)nnc1C`, the cytotoxicity at 70.5 h is 8.29%.

Turning to `Cc1nc(C)c(C(C)NCc2c(C)nn(CC(C)C)c2N(C)C)s1` (configuration not stated), the cytotoxicity at 70.5 h was -3.31%.

Consider `CS(=O)(=O)NCCCNC(=O)c1cnc(-c2ccsc2)s1`, for which the cytotoxicity at 70.5 h was -6.18%.

Take `Cc1cc(OCC(=O)NCc2ccc(F)cc2)nnc1C`: the cytotoxicity at 70.5 h was -6.01%.

Take `O=C(NCCCn1ccccc1=O)c1cnc(-c2ccsc2)s1`: the cytotoxicity at 70.5 h was -11.3%.

As for `COCC(O)CN(C)c1cc(C(F)(F)F)nc(-c2cccnc2)n1` (configuration not stated), the cytotoxicity at 70.5 h was -1.69%.

Take `Cc1cc(NC(=O)NCc2ccncc2)ccc1OC(C)C`: the cytotoxicity at 70.5 h was -3.47%.

With `Cc1cc(OCCC(=O)NCc2ccc(F)cc2)nnc1C`, the cytotoxicity at 70.5 h came to 0.423%.

`O=C(NCCc1cc(F)ccc1F)NC(CO)c1ccccc1` (configuration not stated): the cytotoxicity at 70.5 h amounted to 19.3%.

Consider `O=C(O)c1cc(/C=C/c2ccc3ccccc3c2)ncn1`, for which the cytotoxicity at 70.5 h is -7.92%.

For the molecule `CCC1CN(C)c2ccccc2CN1C(=O)CCn1cncn1` (configuration not stated), the cytotoxicity at 70.5 h is -7.82%.

As for `CCC1CN(C)c2ccccc2CN1CCn1cncn1` (configuration not stated), the cytotoxicity at 70.5 h was -9.88%.

Consider `CC(C)CN(C(=O)Nc1cccnc1)C1CC1`, for which the cytotoxicity at 70.5 h was -7.03%.

In the case of `CC(C)COCCNC1CCN(c2ccccn2)CC1`, the cytotoxicity at 70.5 h amounted to 0.205%.

`O=C(Nc1cccnc1)N(Cc1ccccc1)C1CC1`: the cytotoxicity at 70.5 h was -15.3%.

For `Cc1csc(C(C)(C)NCC(=O)N(C)Cc2ccc(C)o2)n1`, the cytotoxicity at 70.5 h was 4.78%.

`Cc1ccc(CN(C)C(=O)CNC(C)(C)c2noc(C(C)(C)C)n2)o1`: the cytotoxicity at 70.5 h is -0.348%.

In the case of `COc1ncnc(N)c1CNCc1ccccc1-n1cccn1`, the cytotoxicity at 70.5 h was 6.74%.

As to `O=C(NCc1ccc(-n2cncn2)nc1)c1cnccn1`, the cytotoxicity at 70.5 h amounted to 7.67%.

As to `O=C(NCc1ccc(-n2cncn2)nc1)c1cc(Cl)ccn1`, the cytotoxicity at 70.5 h came out at 12.5%.

`Cc1csc(N2CCN(Cc3ccccn3)CC2)n1`: the cytotoxicity at 70.5 h was -9.56%.

Consider `CCCN(CC(=O)N(C)C)C(=O)c1ccc(-c2nc(C)cs2)cc1`, for which the cytotoxicity at 70.5 h was -6.25%.

In the case of `Cc1cccc(COc2ccc(C(C)NS(N)(=O)=O)cc2)c1` (configuration not stated), the cytotoxicity at 70.5 h was -8.27%.

With `COc1ccc2c(c1)CCCN(CC(=O)NCC1CCCO1)C2` (configuration not stated), the cytotoxicity at 70.5 h was -5.84%.

Consider `CC(=O)N1CCC(NC(=O)CN2CCCc3c(C)ccc(F)c32)CC1`, for which the cytotoxicity at 70.5 h was -9.21%.

Consider `Cc1ccc(F)c2c1CCCN2CC(=O)NC1CCS(=O)(=O)C1` (configuration not stated), for which the cytotoxicity at 70.5 h is -4.5%.

For the molecule `CCc1nnc(C(C)N2CCC(NC(=O)C3CCCCC3)CC2)o1` (configuration not stated), the cytotoxicity at 70.5 h was -7.39%.

As for `CSc1ncccc1C(=O)Nc1ccc(Cn2ccccc2=O)cc1`, the cytotoxicity at 70.5 h turned out to be 18.3%.

As for `O=C(NCC[S+]([O-])Cc1ccccc1)c1ccc2[nH]c(=O)[nH]c2c1` (configuration not stated), the cytotoxicity at 70.5 h is -3.54%.

In the case of `Cc1ccc(CNS(=O)(=O)CCCC#N)cc1F`, the cytotoxicity at 70.5 h was -4.22%.

As for `O=C(NCC[S+]([O-])c1ccccc1)c1ccc2[nH]c(=O)[nH]c2c1` (configuration not stated), the cytotoxicity at 70.5 h was -6.4%.

Consider `Cc1cc(CNS(C)(=O)=O)ccc1N(C)C`, for which the cytotoxicity at 70.5 h is -7.39%.

As for `O=C(NCC(O)Cc1ccccc1)c1ccc2[nH]c(=O)[nH]c2c1` (configuration not stated), the cytotoxicity at 70.5 h is -6.14%.

For `Cc1cc(C)n(C2CN(CCC(=O)NCCc3ccccc3)C2)n1`, the cytotoxicity at 70.5 h is -1.03%.

Turning to `CCc1cnc(CNC(=O)NCCc2ccc(O)cc2)s1`, the cytotoxicity at 70.5 h is -1.61%.

Regarding `CCc1cnc(CNC(=O)NCCCO)s1`, the cytotoxicity at 70.5 h was -3.22%.

For the molecule `O=C(C1CCOC1)N1CCN(CC2CC2)c2ccccc21` (configuration not stated), the cytotoxicity at 70.5 h was -6.39%.

For the molecule `CCc1c(C(=O)Nc2ccc(F)c(C(=O)NC)c2)cnn1CC(C)C`, the cytotoxicity at 70.5 h worked out at 0.0762%.

`Cc1ncccc1C(=O)Nc1cccc(Cn2ccccc2=O)c1`: the cytotoxicity at 70.5 h was -7.74%.

For the molecule `Cc1cc(C)nc(NC2CCN(CCOC(C)C)CC2)n1`, the cytotoxicity at 70.5 h came to 1.5%.

With `O=C(C1CCOC1)N1CCN(CC(F)(F)F)c2ccccc21` (configuration not stated), the cytotoxicity at 70.5 h was -5.62%.

As for `COCCS(=O)(=O)NCc1ccc(N(C)C)c(C)c1`, the cytotoxicity at 70.5 h was -7.82%.

As for `CC(O)CN1CCN(Cc2coc(-c3ccccc3Cl)n2)CC1` (configuration not stated), the cytotoxicity at 70.5 h was -4.11%.

As to `NC(=O)C1Cc2ccccc2CN1CCC(=O)N1CCc2ccccc21` (configuration not stated), the cytotoxicity at 70.5 h was -6.41%.

`O=C(Cc1ccc2c(c1)CCC2)NC1CCN(Cc2ccccc2)CC1`: the cytotoxicity at 70.5 h is 30.6%.

For `CC(C)(C)c1noc(CCCC(=O)N2CCNC(=O)C2)n1`, the cytotoxicity at 70.5 h is -16.6%.

In the case of `CCCNC(=O)CNC(=O)CC1CCCc2cc(OC)ccc21` (configuration not stated), the cytotoxicity at 70.5 h is -6.62%.

As to `CN(CC(=O)Nc1ccccc1)C(=O)CN(C)c1ccc(Cl)cn1`, the cytotoxicity at 70.5 h is -10.4%.

For `CN(c1ccc(CNC(=O)c2c[nH]c(=O)c(Cl)c2)cc1)C1CCCCC1`, the cytotoxicity at 70.5 h came out at 5.49%.

With `O=C(O)c1cnc2c(cnn2C2CCCC2)c1`, the cytotoxicity at 70.5 h is -0.534%.

As to `Cc1oc(NC(=O)C(C)N2CCN(C(C)(C)CO)CC2)c(C#N)c1C` (configuration not stated), the cytotoxicity at 70.5 h is -4.43%.

On to `CCn1cc(S(=O)(=O)NCC(OC)c2ccccc2)cn1` (configuration not stated), for which the cytotoxicity at 70.5 h was -3.94%.

As for `CC(C)(C)OC(=O)Cn1nc(C2CC2)cc(C(F)(F)F)c1=O`, the cytotoxicity at 70.5 h is -2.4%.

For the molecule `Cc1ccc(NC(=O)CN(C)C(=O)c2ccc(-n3cccc3)nc2)nc1`, the cytotoxicity at 70.5 h is -1.66%.

Regarding `CC(C)NC(=O)CN1CCC2(CC1)OCCO2`, the cytotoxicity at 70.5 h is -2.05%.

In the case of `COC(=O)CCN(CC1CCOC1)C1CC1` (configuration not stated), the cytotoxicity at 70.5 h was 0.428%.

With `CCc1noc(CS(=O)(=O)C(C)c2nc(C3CC3)no2)n1` (configuration not stated), the cytotoxicity at 70.5 h is 13.9%.

For the molecule `CN(C(=O)c1ccc(Cl)c(S(C)(=O)=O)c1)c1ccccc1`, the cytotoxicity at 70.5 h is 0.806%.

Consider `Cc1ccnc(C(NC(=O)c2sc(C)nc2C)C2CC2)n1` (configuration not stated), for which the cytotoxicity at 70.5 h was -2.09%.

As for `Cc1ccnc(C(NC(=O)c2ncoc2C)C2CC2)n1` (configuration not stated), the cytotoxicity at 70.5 h amounted to 16.5%.

`COc1ccc(N(C)C(=O)c2cccc(S(C)(=O)=O)c2)cn1`: the cytotoxicity at 70.5 h was -3.33%.

With `CCOc1ccccc1NC(=O)CN(C)Cc1ccccc1Cl`, the cytotoxicity at 70.5 h was -0.249%.

In the case of `CCN(CC)CC1CCN(Cc2ncc(C(C)(C)C)o2)CC1`, the cytotoxicity at 70.5 h amounted to 1.11%.

Take `COC(=O)C1CN(Cc2nc(-c3ccccc3)cs2)C[C@@H](C)O1` (some centres not stated): the cytotoxicity at 70.5 h came out at 3.89%.

Regarding `CCN(CCS(=O)(=O)c1ccc(Cl)cc1)Cc1ccc(OC)c(OC)c1`, the cytotoxicity at 70.5 h was -12.9%.

As for `CCCn1cc(NC(=O)c2ccc(S(=O)(=O)CC)cc2)ccc1=O`, the cytotoxicity at 70.5 h came out at 22.4%.

As for `CN(Cc1cccc(C(N)=O)c1)c1ncc(C#N)cc1Cl`, the cytotoxicity at 70.5 h is -9.21%.

Regarding `Cn1cc(NC(=O)N2CCN(Cc3cscn3)CC2)ccc1=O`, the cytotoxicity at 70.5 h was -9.04%.

Regarding `CCN(C1CCN(Cc2ncc(C(C)(C)C)o2)CC1)S(C)(=O)=O`, the cytotoxicity at 70.5 h was -7.94%.

For the molecule `COC(=O)c1sc2cccc(F)c2c1CNC(=O)C1CC1`, the cytotoxicity at 70.5 h worked out at 1.14%.

For `O=C(NC1CCN(c2ncccn2)CC1)c1sccc1C1CC1`, the cytotoxicity at 70.5 h was -5.49%.

Consider `CN(Cc1cccc(C(N)=O)c1)c1ncc(C(N)=O)cc1Cl`, for which the cytotoxicity at 70.5 h was -9.7%.

As to `CCOc1cncc(N2CCN(c3ccccc3F)CC2)n1`, the cytotoxicity at 70.5 h is 6.24%.

As to `COc1cc2c(cc1CNC(=O)Cc1cc(C)[nH]n1)OC(C)C2` (configuration not stated), the cytotoxicity at 70.5 h came to 3.19%.

Take `Cc1cc(NCc2csc(-c3ccsc3)n2)no1`: the cytotoxicity at 70.5 h amounted to 0.878%.

Consider `CCc1nc2c(s1)C(N(C)C(=O)c1csnn1)CCC2` (configuration not stated), for which the cytotoxicity at 70.5 h was -5.63%.

Turning to `CCCn1cc(NC(=O)c2ccc(S(C)(=O)=O)cc2)ccc1=O`, the cytotoxicity at 70.5 h is -1.34%.

As to `CCc1nc(C(=O)N(C)CC(=O)N(C)C)nn1-c1ccccc1Cl`, the cytotoxicity at 70.5 h was 27.7%.

Consider `CC(C)c1noc(CCCC(=O)Nc2cccc(F)c2)n1`, for which the cytotoxicity at 70.5 h is 15.5%.

For `Cc1nnc(NC(=O)NCc2ccc(N3CCNC(=O)C3)cc2)s1`, the cytotoxicity at 70.5 h is -3.76%.

With `CC(O)CNCc1c[nH]nc1-c1cc2ccccc2o1` (configuration not stated), the cytotoxicity at 70.5 h is 17.5%.

For the molecule `CC(C)(C)OC(=O)NCCNC(=O)c1ccc2cc[nH]c2c1`, the cytotoxicity at 70.5 h was 0.498%.

For `CC(=O)c1cccc(NC(=O)NCCCc2nc(C(C)C)no2)c1`, the cytotoxicity at 70.5 h is -1.88%.

Turning to `Cc1nc(N2CCC(CC(=O)N3CCCC3)CC2)c2cnn(C)c2n1`, the cytotoxicity at 70.5 h is -3.28%.

For `CC1CCC(NC(=O)CNC2(c3cccc(Br)c3)CCOCC2)CC1` (configuration not stated), the cytotoxicity at 70.5 h is 9.26%.

As to `Cc1nn(C)c(N2CCCN(C)CC2)c1CNC(=O)C(C)(C)C`, the cytotoxicity at 70.5 h is -0.257%.

Consider `CCOC(=O)c1cnn(C2CCN(C(=O)CCC(C)C)CC2)c1N`, for which the cytotoxicity at 70.5 h was 0.0774%.

`CN(C(=O)COc1ccc(-c2noc(C3CCCO3)n2)cc1)C1CC1` (configuration not stated): the cytotoxicity at 70.5 h came out at 0.982%.

For `CC(Nc1cccc2c1OCCO2)C(=O)Nc1cccc(C#N)c1` (configuration not stated), the cytotoxicity at 70.5 h was found to be 3.49%.

Regarding `CC(C)(C)S(=O)(=O)CCNC(=O)c1ccc2cc[nH]c2c1`, the cytotoxicity at 70.5 h is -0.00861%.

In the case of `CCn1nc(C)cc1C(=O)NCc1cc(N(C)C)nc2ccccc12`, the cytotoxicity at 70.5 h was found to be 9.21%.

Take `COC(=O)N1CCC(Nc2ccc(C#N)c(Cl)c2)C1` (configuration not stated): the cytotoxicity at 70.5 h was determined as 1.68%.

With `Cc1cccc(COc2ccc(C(C)N)cc2)c1` (configuration not stated), the cytotoxicity at 70.5 h is -4.64%.

`CCOC(=O)c1cnn(C2CCN(C(=O)CC(C)(C)C)CC2)c1N`: the cytotoxicity at 70.5 h came out at 4.77%.

The values are drawn from ChEMBL document CHEMBL3507680, “University of Dundee, Gates Library screen for HepG2 cell viability”.
